# Several values for one entry are separate records, joined by “and”; a condition that tells them apart may be missing. Equal entries are not always repeated. Toxic doses and inconclusive results are not listed.
# Test system: L1210 leukemia ip in BDF1 mice, survival T/C
# Assay: NCI In Vivo Anticancer Drug Screen. Data for tumor model L1210 Leukemia (intraperitoneal) in B6D2F1 (BDF1) mice
# Conditions: endpoint: mean survival time, higher = longer survival
# How it was run: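 Ratio derived from survival: compound-dosed mice over vehicle-dosed mice, all bearing a transplantable tumor.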
# [1] = dose: 100.0 mg/kg/injection, schedule: Q04DX003 (ip), vehicle: saline
# [2] = dose: 200.0 mg/kg/injection, schedule: Q04DX003 (ip), vehicle: saline
# [3] = dose: 400.0 mg/kg/injection, schedule: Q04DX003 (ip), vehicle: saline
# [4] = dose: 100.0 mg/kg/injection, schedule: Q01DX009 (ip), vehicle: Klucel (hydroxypropylcellulose) (HPC)
# [5] = dose: 200.0 mg/kg/injection, schedule: Q01DX009 (ip), vehicle: Klucel (hydroxypropylcellulose) (HPC)
# [6] = dose: 400.0 mg/kg/injection, schedule: Q01DX009 (ip), vehicle: Klucel (hydroxypropylcellulose) (HPC)
# [7] = dose: 100.0 mg/kg/injection, schedule: Q01DX009 (ip), vehicle: saline
# [8] = dose: 200.0 mg/kg/injection, schedule: Q01DX009 (ip), vehicle: saline
# [9] = dose: 100.0 mg/kg/injection, schedule: Q04DX003 (ip), vehicle: Klucel (hydroxypropylcellulose) (HPC)
# [10] = dose: 200.0 mg/kg/injection, schedule: Q04DX003 (ip), vehicle: Klucel (hydroxypropylcellulose) (HPC)
# [11] = dose: 400.0 mg/kg/injection, schedule: Q04DX003 (ip), vehicle: Klucel (hydroxypropylcellulose) (HPC)
# [12] = dose: 50.0 mg/kg/injection, schedule: Q01DX009 (ip), vehicle: Klucel (hydroxypropylcellulose) (HPC)
# [13] = dose: 200.0 mg/kg/injection, schedule: Q01DX001 (ip), vehicle: saline with Tween-80
smiles,measurement,setting,value
N=C([Se])c1c(N)ncn1C1OC(CO)C(O)C1O (stereo not drawn),T/C,"dose: 12.5 mg/kg/injection, schedule: Q01DX005 (ip), vehicle: saline",98 % of control
same,T/C,"dose: 25.0 mg/kg/injection, schedule: Q01DX005 (ip), vehicle: saline",94 % of control
same,T/C,"dose: 50.0 mg/kg/injection, schedule: Q01DX005 (ip), vehicle: saline",96 % of control
CC1=NCCN=C(C)C1,T/C,[1],96 % of control
same,T/C,[2],98 % of control
same,T/C,[3],112 % of control
COc1ccc(/C=N/NC(=S)Nc2ccccc2)cc1OC,T/C,[4],94 % of control and 100 % of control
same,T/C,[5],89 % of control
same,T/C,[6],96 % of control and 86 % of control
N#Cc1ccccc1C(N)=O,T/C,"dose: 12.5 mg/kg/injection, schedule: Q04DX002 (ip), vehicle: saline",107 % of control
same,T/C,"dose: 25.0 mg/kg/injection, schedule: Q04DX002 (ip), vehicle: saline",98 % of control
same,T/C,"dose: 50.0 mg/kg/injection, schedule: Q04DX002 (ip), vehicle: saline",102 % of control
same,T/C,"dose: 100.0 mg/kg/injection, schedule: Q04DX002 (ip), vehicle: saline",90 % of control
CCN=C(N)C(N)=NCC,T/C,[7],94 % of control
same,T/C,[1],103 % of control
same,T/C,[8],94 % of control
same,T/C,[2],100 % of control
same,T/C,"dose: 400.0 mg/kg/injection, schedule: Q01DX009 (ip), vehicle: saline",89 % of control
same,T/C,[3],97 % of control
Cc1cccn2ncnc12,T/C,"dose: 50.0 mg/kg/injection, schedule: Q01DX001 (ip), vehicle: alcohol",106 % of control
same,T/C,"dose: 100.0 mg/kg/injection, schedule: Q01DX001 (ip), vehicle: alcohol",107 % of control
same,T/C,"dose: 200.0 mg/kg/injection, schedule: Q01DX001 (ip), vehicle: alcohol",102 % of control
O=[N+]([O-])c1ccc(OCCCCOc2ccccc2)c(Cl)c1,T/C,[9],95 % of control
same,T/C,[10],96 % of control
same,T/C,[11],91 % of control
Br/C(=C(/Br)c1ccccc1)c1ccccc1,T/C,[12],105 % of control
same,T/C,[4],91 % of control
same,T/C,[5],102 % of control
Cc1cc(=O)n(C)c[n+]1C,T/C,"dose: 50.0 mg/kg/injection, schedule: Q01DX001 (ip), vehicle: saline",93 % of control
same,T/C,"dose: 50.0 mg/kg/injection, schedule: Q01DX009 (ip), vehicle: saline",106 % of control
same,T/C,"dose: 100.0 mg/kg/injection, schedule: Q01DX001 (ip), vehicle: saline",106 % of control
same,T/C,[7],109 % of control
same,T/C,"dose: 200.0 mg/kg/injection, schedule: Q01DX001 (ip), vehicle: saline",100 % of control
same,T/C,[8],113 % of control
same,T/C,"dose: 400.0 mg/kg/injection, schedule: Q01DX001 (ip), vehicle: saline",96 % of control
N#Cc1ccsc1C#N,T/C,"dose: 100.0 mg/kg/injection, schedule: Q04DX003 (ip), vehicle: acetone",109 % of control
CCN(CC)CCCOP(=O)(N(CC)CC)N(CCCl)CCCl (stereo not drawn),T/C,[13],101 % of control
CC1(CCC#N)CCC(N)=CC1=O (stereo not drawn),T/C,"dose: 100.0 mg/kg/injection, schedule: Q01DX001 (ip), vehicle: carboxymethylcellulose (CMC)",96 % of control
same,T/C,"dose: 200.0 mg/kg/injection, schedule: Q01DX001 (ip), vehicle: carboxymethylcellulose (CMC)",98 % of control
same,T/C,"dose: 400.0 mg/kg/injection, schedule: Q01DX001 (ip), vehicle: carboxymethylcellulose (CMC)",96 % of control
O=P(Oc1ccc(OP(=O)(N2CC2)N2CC2)cc1)(N1CC1)N1CC1,T/C,"dose: 9.0 mg/kg/injection, schedule: Q01DX009 (ip), vehicle: saline",96 % of control
same,T/C,"dose: 9.5 mg/kg/injection, schedule: Q01DX001 (ip), vehicle: saline",98 % of control
same,T/C,"dose: 13.0 mg/kg/injection, schedule: Q01DX009 (ip), vehicle: saline",110 % of control
same,T/C,"dose: 19.0 mg/kg/injection, schedule: Q01DX001 (ip), vehicle: saline",110 % of control
same,T/C,"dose: 20.0 mg/kg/injection, schedule: Q01DX009 (ip), vehicle: saline",104 % of control
same,T/C,"dose: 22.0 mg/kg/injection, schedule: Q01DX Z (ip), vehicle: other",103 % of control
same,T/C,"dose: 32.0 mg/kg/injection, schedule: Q01DX009 (ip), vehicle: saline",100 % of control
same,T/C,"dose: 33.0 mg/kg/injection, schedule: Q01DX Z (ip), vehicle: other",104 % of control
same,T/C,"dose: 38.0 mg/kg/injection, schedule: Q01DX001 (ip), vehicle: saline",102 % of control
same,T/C,"dose: 50.0 mg/kg/injection, schedule: Q01DX Z (ip), vehicle: other",114 % of control
same,T/C,"dose: 54.0 mg/kg/injection, schedule: Q01DX009 (ip), vehicle: saline",186 % of control
same,T/C,"dose: 75.0 mg/kg/injection, schedule: Q01DX Z (ip), vehicle: other",123 % of control
same,T/C,"dose: 90.0 mg/kg/injection, schedule: Q01DX009 (ip), vehicle: saline",166 % of control
same,T/C,"dose: 150.0 mg/kg/injection, schedule: Q01DX009 (ip), vehicle: saline",101 % of control
same,T/C,"dose: 300.0 mg/kg/injection, schedule: Q01DX001 (ip), vehicle: saline",153 % of control
c1ccc(C2=Nc3ccccc3-c3ccccc3N2)cc1,T/C,"dose: 100.0 mg/kg/injection, schedule: Q01DX001 (ip), vehicle: saline with Tween-80",100 % of control
same,T/C,[13],103 % of control
same,T/C,"dose: 400.0 mg/kg/injection, schedule: Q01DX001 (ip), vehicle: saline with Tween-80",106 % of control
CC12C=CC(=O)C=C1CCC1C2C(O)CC2(C)C1CCC2(O)C(=O)COC(=O)CCCc1ccc(N(CCCl)CCCl)cc1 (stereo not drawn),T/C,"dose: 12.5 mg/kg/injection, schedule: Q01DX009 (ip), vehicle: Klucel (hydroxypropylcellulose) (HPC)",116 % of control
same,T/C,"dose: 12.5 mg/kg/injection, schedule: Q04DX003 (ip), vehicle: Klucel (hydroxypropylcellulose) (HPC)",97 % of control
same,T/C,"dose: 15.0 mg/kg/injection, schedule: Q01DX009 (ip), vehicle: saline with Tween-80",107 % of control
same,T/C,"dose: 25.0 mg/kg/injection, schedule: Q01DX009 (ip), vehicle: Klucel (hydroxypropylcellulose) (HPC)",122 % of control
same,T/C,"dose: 25.0 mg/kg/injection, schedule: Q04DX003 (ip), vehicle: Klucel (hydroxypropylcellulose) (HPC)",110 % of control
same,T/C,"dose: 30.0 mg/kg/injection, schedule: Q01DX009 (ip), vehicle: saline with Tween-80",114 % of control
same,T/C,[12],124 % of control
same,T/C,"dose: 50.0 mg/kg/injection, schedule: Q04DX003 (ip), vehicle: Klucel (hydroxypropylcellulose) (HPC)",109 % of control
same,T/C,"dose: 60.0 mg/kg/injection, schedule: Q01DX009 (ip), vehicle: saline with Tween-80",108 % of control
same,T/C,"dose: 75.0 mg/kg/injection, schedule: Q01DX001 (sc), vehicle: steriod suspending solution",103 % of control
same,T/C,"dose: 150.0 mg/kg/injection, schedule: Q01DX001 (sc), vehicle: steriod suspending solution",111 % of control
same,T/C,"dose: 300.0 mg/kg/injection, schedule: Q01DX001 (sc), vehicle: steriod suspending solution",108 % of control
COC(=O)C12N=NN(c3ccccc3)C1(C(=O)OC)C1CCC2C1 (stereo not drawn),T/C,"dose: 100.0 mg/kg/injection, schedule: Q01DX009 (ip), vehicle: saline with Tween-80",106 % of control
same,T/C,[9],96 % of control
same,T/C,"dose: 200.0 mg/kg/injection, schedule: Q01DX009 (ip), vehicle: saline with Tween-80",94 % of control
same,T/C,[10],102 % of control
same,T/C,"dose: 400.0 mg/kg/injection, schedule: Q01DX009 (ip), vehicle: saline with Tween-80",98 % of control
same,T/C,[11],97 % of control
COc1ccc(-c2nc(SCc3ccc(Cl)cc3)[nH]c(=O)c2CCO)cc1,T/C,[12],95 % of control
same,T/C,[4],101 % of control
same,T/C,[1],111 % of control
same,T/C,[5],96 % of control
same,T/C,[2],95 % of control
Cc1nc2cc(N=Cc3ccc(N(CCCl)CCCl)cc3)ccc2n1C,T/C,"dose: 68.8 mg/kg/injection, schedule: Q04DX002 (ip), vehicle: Klucel (hydroxypropylcellulose) (HPC)",104 % of control
same,T/C,"dose: 137.5 mg/kg/injection, schedule: Q04DX002 (ip), vehicle: Klucel (hydroxypropylcellulose) (HPC)",104 % of control
same,T/C,"dose: 275.0 mg/kg/injection, schedule: Q04DX002 (ip), vehicle: Klucel (hydroxypropylcellulose) (HPC)",104 % of control
CC(C(OC(=O)Nc1ccc(Cl)c(Cl)c1)c1ccc(F)cc1)C(O)(C(F)(F)F)C(F)(F)F (stereo not drawn),T/C,[4],93 % of control
same,T/C,[5],93 % of control
same,T/C,[6],91 % of control
Nc1cccc(CNC(=O)COc2cccc(Cl)c2)c1,T/C,[12],116 % of control
same,T/C,[4],109 % of control
same,T/C,[9],96 % of control
same,T/C,[5],120 % of control
same,T/C,[10],96 % of control
same,T/C,[11],104 % of control

# Source: PubChem BioAssay AID248 (DTP/NCI, 2004)
